Source: the NIST ThermoML archive (doi:10.1016/j.jct.2018.02.014)
± gives the expanded uncertainty stated by the source.

Key:
[1] = 101.33 kPa, Liquid; for viscosity: Falling or rolling sphere viscometry; for mass density: Vibrating tube method
[2] = activity coefficient (dimensionless); of the first substance listed, at infinite dilution; xn = mol fraction of the nth substance listed; details: 101.33 kPa, Liquid, Chromatography, x1 = 0

CC[N+]1(C)CCOCC1.N#CN=C=[N-] [N-ethyl-N-methylmorpholinium dicyanamide]
viscosity ([1]; 298.15 K): 176 ± 8 mPa·s | mass density ([1]; 298.15 K): 1123.2 ± 4.8 kg/m3 | mass density ([1]; 303.15 K): 1120.2 ± 4.8 kg/m3 | viscosity ([1]; 308.15 K): 106 ± 4 mPa·s | mass density ([1]; 308.15 K): 1117.2 ± 4.8 kg/m3 | mass density ([1]; 313.15 K): 1114.2 ± 4.8 kg/m3 | viscosity ([1]; 318.15 K): 68.3 ± 1.8 mPa·s | mass density ([1]; 318.15 K): 1111.3 ± 4.8 kg/m3 | mass density ([1]; 323.15 K): 1108.4 ± 4.8 kg/m3 | viscosity ([1]; 328.15 K): 47.4 ± 1.2 mPa·s | mass density ([1]; 328.15 K): 1105.4 ± 4.7 kg/m3 | mass density ([1]; 333.15 K): 1102.5 ± 4.7 kg/m3 | viscosity ([1]; 338.15 K): 33.7 ± 0.8 mPa·s | mass density ([1]; 338.15 K): 1099.7 ± 4.7 kg/m3 | mass density ([1]; 343.15 K): 1096.8 ± 4.7 kg/m3 | viscosity ([1]; 348.15 K): 24.8 ± 0.6 mPa·s | mass density ([1]; 348.15 K): 1093.9 ± 4.7 kg/m3 | mass density ([1]; 353.15 K): 1091.1 ± 4.7 kg/m3 | viscosity ([1]; 358.15 K): 19.2 ± 0.5 mPa·s | mass density ([1]; 358.15 K): 1088.3 ± 4.6 kg/m3 | mass density ([1]; 363.15 K): 1085.5 ± 4.6 kg/m3 | viscosity ([1]; 368.15 K): 15.6 ± 0.4 mPa·s | mass density ([1]; 368.15 K): 1082.7 ± 4.6 kg/m3

CCCc1ccccc1 [propylbenzene] + CC[N+]1(C)CCOCC1.N#CN=C=[N-]
activity coefficient ([2]; 318.15 K): 29.2 ± 2 | activity coefficient ([2]; 328.15 K): 29.1 ± 2 | activity coefficient ([2]; 338.15 K): 29.1 ± 2 | activity coefficient ([2]; 348.15 K): 29.1 ± 2 | activity coefficient ([2]; 358.15 K): 29.2 ± 2 | activity coefficient ([2]; 368.15 K): 29.2 ± 2

CC1CCCCC1 [methylcyclohexane] + CC[N+]1(C)CCOCC1.N#CN=C=[N-]
activity coefficient ([2]; 318.15 K): 288 ± 20 | activity coefficient ([2]; 328.15 K): 263 ± 18 | activity coefficient ([2]; 338.15 K): 242 ± 17 | activity coefficient ([2]; 348.15 K): 224 ± 15 | activity coefficient ([2]; 358.15 K): 208 ± 14 | activity coefficient ([2]; 368.15 K): 194 ± 13

CCCCCCCCCC [decane] + CC[N+]1(C)CCOCC1.N#CN=C=[N-]
activity coefficient ([2]; 318.15 K): 2230 ± 150 | activity coefficient ([2]; 328.15 K): 2030 ± 140 | activity coefficient ([2]; 338.15 K): 1880 ± 130 | activity coefficient ([2]; 348.15 K): 1740 ± 120 | activity coefficient ([2]; 358.15 K): 1610 ± 110 | activity coefficient ([2]; 368.15 K): 1500 ± 100

C=Cc1ccccc1 [styrene] + CC[N+]1(C)CCOCC1.N#CN=C=[N-]
activity coefficient ([2]; 318.15 K): 6.38 ± 0.43 | activity coefficient ([2]; 328.15 K): 6.59 ± 0.45 | activity coefficient ([2]; 338.15 K): 6.81 ± 0.46 | activity coefficient ([2]; 348.15 K): 7.01 ± 0.48 | activity coefficient ([2]; 358.15 K): 7.22 ± 0.49 | activity coefficient ([2]; 368.15 K): 7.43 ± 0.51

CCCCCCC [heptane] + CC[N+]1(C)CCOCC1.N#CN=C=[N-]
activity coefficient ([2]; 298.15 K): 953 ± 66 | activity coefficient ([2]; 308.15 K): 831 ± 57 | activity coefficient ([2]; 318.15 K): 729 ± 50 | activity coefficient ([2]; 328.15 K): 645 ± 44 | activity coefficient ([2]; 338.15 K): 574 ± 40

CC(C)O [propan-2-ol] + CC[N+]1(C)CCOCC1.N#CN=C=[N-]
activity coefficient ([2]; 318.15 K): 2.02 ± 0.14 | activity coefficient ([2]; 328.15 K): 2 ± 0.14 | activity coefficient ([2]; 338.15 K): 1.99 ± 0.14 | activity coefficient ([2]; 348.15 K): 1.97 ± 0.13 | activity coefficient ([2]; 358.15 K): 1.96 ± 0.13 | activity coefficient ([2]; 368.15 K): 1.95 ± 0.13

CCCC=O [butanal] + CC[N+]1(C)CCOCC1.N#CN=C=[N-]
activity coefficient ([2]; 318.15 K): 3.51 ± 0.24 | activity coefficient ([2]; 328.15 K): 3.65 ± 0.25 | activity coefficient ([2]; 338.15 K): 3.79 ± 0.26 | activity coefficient ([2]; 348.15 K): 3.92 ± 0.27 | activity coefficient ([2]; 358.15 K): 4.04 ± 0.28 | activity coefficient ([2]; 368.15 K): 4.17 ± 0.28

CCOC(C)=O [ethyl acetate] + CC[N+]1(C)CCOCC1.N#CN=C=[N-]
activity coefficient ([2]; 318.15 K): 5.67 ± 0.39 | activity coefficient ([2]; 328.15 K): 5.93 ± 0.4 | activity coefficient ([2]; 338.15 K): 6.19 ± 0.42 | activity coefficient ([2]; 348.15 K): 6.45 ± 0.44 | activity coefficient ([2]; 358.15 K): 6.71 ± 0.46 | activity coefficient ([2]; 368.15 K): 6.96 ± 0.47

CC(C)CO [2-methyl-1-propanol] + CC[N+]1(C)CCOCC1.N#CN=C=[N-]
activity coefficient ([2]; 318.15 K): 3.01 ± 0.2 | activity coefficient ([2]; 328.15 K): 2.93 ± 0.2 | activity coefficient ([2]; 338.15 K): 2.86 ± 0.19 | activity coefficient ([2]; 348.15 K): 2.79 ± 0.19 | activity coefficient ([2]; 358.15 K): 2.73 ± 0.19 | activity coefficient ([2]; 368.15 K): 2.67 ± 0.18

C#CCCCCCC [1-octyne] + CC[N+]1(C)CCOCC1.N#CN=C=[N-]
activity coefficient ([2]; 318.15 K): 84.2 ± 5.8 | activity coefficient ([2]; 328.15 K): 84.6 ± 5.8 | activity coefficient ([2]; 338.15 K): 84.9 ± 5.8 | activity coefficient ([2]; 348.15 K): 85.6 ± 5.9 | activity coefficient ([2]; 358.15 K): 86.1 ± 5.9 | activity coefficient ([2]; 368.15 K): 86.8 ± 5.9

CC(C)OC(C)C [diisopropyl ether] + CC[N+]1(C)CCOCC1.N#CN=C=[N-]
activity coefficient ([2]; 328.15 K): 123 ± 8 | activity coefficient ([2]; 338.15 K): 125 ± 9 | activity coefficient ([2]; 348.15 K): 127 ± 9 | activity coefficient ([2]; 358.15 K): 128 ± 9 | activity coefficient ([2]; 368.15 K): 130 ± 9
